Among the test systems are MCF7; A549; Malme-3M; U-251; ACHN; SF-539; SNB-19; NCI-H460; CCRF-CEM; T47D; SNB-75; SN12C; SF-268; 786-0; OVCAR-5; SK-MEL-28; CAKI-1; HCT-116; K562; NCI-H226.
Experiment in all cases: inhibition of tumour cell growth, NCI panel, 48 h

Molecules are shown by their SMILES. Structures can show the parent of a compound that is named as a salt.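 Assay format: 96-well plates, 48-hour exposure. At the GI50, growth is halved.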 The source made the active and inactive calls. No stated cut-off is given here; in the data, active = GI50 up to about 1.1 µM and inactive = higher.

In the case of `O=[N+]([O-])c1nccn1CCCNc1ccnc2cc(Cl)ccc12`, the GI50 was 50 µM (inactive) in the test with MCF7; 5.43 µM (inactive) in the test with A549; 29 µM (inactive) with Malme-3M; 6.82 µM (inactive) with U-251; 4.75 µM (inactive) with ACHN; 5.48 µM (inactive) in the test on SF-539. Also, the GI50 is 4.06 µM (inactive) in the test on SNB-19; 3.12 µM (inactive) in the test on NCI-H460; 5.38 µM (inactive) in the test with CCRF-CEM; 7.67 µM (inactive) in the test with T47D; 6.62 µM (inactive) with SNB-75; 3.3 µM (inactive) with SN12C. Also, the GI50 in the test on SF-268 is 7.48 µM (inactive); in the test with 786-0 it was 3.76 µM (inactive); in the test on OVCAR-5 it was 14.4 µM (inactive); in the test on SK-MEL-28 it was > 9.86 µM (inactive); with CAKI-1, > 5.93 µM (inactive); in the test on HCT-116 it was 3.47 µM (inactive). In addition, the results for the GI50 with K562 and with NCI-H226 were 4.24 µM (inactive) and 3.27 µM (inactive), respectively.
With `C=C1C(=O)OC2C1C(OC(=O)/C(C)=C/C)CC(O)(CCl)C1C(O)C=C(C)C21O` (stereo not given), the GI50 in the test on MCF7 was 4.52 µM (inactive); with A549, 28.7 µM (inactive); with Malme-3M, 2.22 µM (inactive); in the test on U-251 it was 27.5 µM (inactive); in the test on ACHN, 5.79 µM (inactive); in the test on SF-539, 20.6 µM (inactive). Moreover, the GI50 with SNB-19 was > 43.8 µM (inactive); with NCI-H460, 16.7 µM (inactive); with CCRF-CEM it was 2.84 µM (inactive); in the test on T47D it was 11.9 µM (inactive); in the test on SNB-75, 27.5 µM (inactive); in the test on SN12C, 14.4 µM (inactive). The GI50 is 22.9 µM (inactive) in the test on SF-268; 4.88 µM (inactive) with 786-0; 16.7 µM (inactive) with OVCAR-5; 13.3 µM (inactive) in the test on SK-MEL-28; 4.14 µM (inactive) in the test on CAKI-1; 6.28 µM (inactive) in the test on HCT-116. The GI50 with K562 was 3.78 µM (inactive); with NCI-H226, 19.1 µM (inactive).
Consider `CN(C)c1nc(-c2ccccc2)c(C(=O)c2c[nH]c3ccccc23)s1`, for which the GI50 is 4.48 µM (inactive) with MCF7; 6.62 µM (inactive) with A549; 11.2 µM (inactive) with Malme-3M; 5.66 µM (inactive) in the test on U-251; 30.5 µM (inactive) with ACHN; 10.7 µM (inactive) in the test with SF-539. Also, the GI50 in the test with SNB-19 is 14.8 µM (inactive); in the test on NCI-H460, 3.55 µM (inactive); with CCRF-CEM, 5.92 µM (inactive); in the test with T47D it was > 43.7 µM (inactive); in the test with SNB-75 it was 2.67 µM (inactive); with SN12C it was 18.2 µM (inactive). In addition, the GI50 with SF-268 was 9.2 µM (inactive); in the test with 786-0, 8.61 µM (inactive); in the test with OVCAR-5 it was > 24.3 µM (inactive); in the test with SK-MEL-28 it was > 35.2 µM (inactive); in the test with CAKI-1, 9.4 µM (inactive); in the test on HCT-116, 3.88 µM (inactive). Moreover, the values for the GI50 in the test with K562 and with NCI-H226 were 4.07 µM (inactive) and > 25.7 µM (inactive), respectively.
In the case of `CC1c2cc(c3c(c2O)CN([C@@H](C)C2CCCCC2)CO3)C(C)c2cc(c3c(c2O)CN([C@@H](C)C2CCCCC2)CO3)C(C)c2cc(c3c(c2O)CN([C@@H](C)C2CCCCC2)CO3)C(C)c2cc1c1c(c2O)CN([C@@H](C)C2CCCCC2)CO1` (stereo not given in full), the GI50 in the test with MCF7 was 1.36 µM (inactive); with A549, 1.84 µM (inactive); with Malme-3M, 1.45 µM (inactive); in the test on U-251 it was 0.964 µM (active); in the test with ACHN, 1.47 µM (inactive); in the test with SF-539 it was 1.77 µM (inactive). In addition, the GI50 with SNB-19 is 1.61 µM (inactive); in the test with NCI-H460 it was 1.28 µM (inactive); in the test with CCRF-CEM it was 0.34 µM (active); in the test with T47D it was 1.56 µM (inactive); in the test on SNB-75 it was 1.22 µM (inactive); with SN12C, 0.962 µM (active). Besides, the GI50 in the test with SF-268 is 1.33 µM (inactive); in the test with 786-0 it was 1.13 µM (inactive); in the test on OVCAR-5, 1.78 µM (inactive); with SK-MEL-28, 1.76 µM (inactive); with CAKI-1, 1.6 µM (inactive); in the test with HCT-116, 1.06 µM (active). Also, the GI50 is 0.369 µM (active) with K562 and 0.979 µM (active) in the test on NCI-H226.
`CC(C)CC1[C@@H](OCc2ccccc2)COS(=O)(=O)N1Cc1ccccc1` (stereo not given in full): the GI50 was 91.8 µM (inactive) with MCF7; 67.6 µM (inactive) in the test with A549; 62.5 µM (inactive) in the test with Malme-3M; > 100 µM (inactive) with U-251; > 100 µM (inactive) in the test on ACHN; > 100 µM (inactive) in the test with SF-539. For the same molecule, the GI50 with SNB-19 was 48.1 µM (inactive); in the test on NCI-H460, > 100 µM (inactive); in the test with CCRF-CEM, > 100 µM (inactive); in the test on T47D it was > 100 µM (inactive); in the test with SNB-75 it was 82 µM (inactive); with SN12C it was > 100 µM (inactive). Further, the GI50 in the test on SF-268 was 6.64 µM (inactive); in the test with 786-0, > 100 µM (inactive); in the test on OVCAR-5 it was > 100 µM (inactive); in the test on SK-MEL-28, > 100 µM (inactive); in the test with CAKI-1, > 100 µM (inactive); with HCT-116 it was 53.5 µM (inactive). The GI50 in the test on K562 is 50.9 µM (inactive); with NCI-H226 it was 86.7 µM (inactive).
`CC(CN1c2ccccc2Sc2ccccc21)N(C)C` (stereo not given) [PROMETHAZINE HYDROCHLORIDE]: the GI50 in the test with MCF7 was 25.8 µM (inactive); in the test with A549 it was 20 µM (inactive); with Malme-3M it was 18.9 µM (inactive); with U-251, 14.2 µM (inactive); in the test on ACHN, 17 µM (inactive); in the test on SF-539, 19.1 µM (inactive). Further, the GI50 was 17.4 µM (inactive) in the test on SNB-19; 17.9 µM (inactive) in the test with NCI-H460; 20.3 µM (inactive) in the test on CCRF-CEM; 21.5 µM (inactive) in the test with T47D; 3.78 µM (inactive) with SNB-75; 15.3 µM (inactive) in the test with SN12C. Moreover, the GI50 with SF-268 is 17.5 µM (inactive); in the test on 786-0 it was 14.8 µM (inactive); in the test with OVCAR-5 it was 18.2 µM (inactive); in the test on SK-MEL-28, 17.8 µM (inactive); in the test with CAKI-1, 18.5 µM (inactive); with HCT-116, 15.5 µM (inactive). Further, the GI50 is 17.3 µM (inactive) with K562 and 19.1 µM (inactive) in the test on NCI-H226.
Take `C=C(C)C1CCC(C(=O)O)CC1` (stereo not given): the GI50 in the test on MCF7, in the test with A549, with Malme-3M, in the test on U-251, in the test on ACHN and with SF-539 was > 100 µM (inactive) in each case. The GI50 with SNB-19, in the test with NCI-H460, with CCRF-CEM, with T47D, with SNB-75 and in the test on SN12C was > 100 µM (inactive) throughout. Also, the GI50 with SF-268, in the test with 786-0, in the test with OVCAR-5, in the test on SK-MEL-28, with CAKI-1 and in the test with HCT-116 was > 100 µM (inactive) each time. For the same molecule, the GI50 in the test on K562 and with NCI-H226 was > 100 µM (inactive) each time.
As to `C/C=C/C=C\C=C/C(O)C(C)C(CCC(C)C1OC(=O)C=CC1C)OP(=O)(O)O` (stereo not given), the GI50 in the test on MCF7 is 0.272 µM (active); in the test with A549 it was 0.538 µM (active); with Malme-3M, 0.232 µM (active); with U-251, 0.893 µM (active); in the test with ACHN it was 0.351 µM (active); in the test on SF-539, 0.461 µM (active). Also, the GI50 in the test on SNB-19 was 0.562 µM (active); in the test on NCI-H460, 0.4 µM (active); with CCRF-CEM, 0.243 µM (active); in the test on T47D, 0.386 µM (active); with SNB-75, 0.986 µM (active); in the test on SN12C, 0.323 µM (active). In addition, the GI50 in the test on SF-268 is 0.59 µM (active); with 786-0 it was 0.404 µM (active); in the test with OVCAR-5 it was 0.263 µM (active); in the test on SK-MEL-28, 0.804 µM (active); with CAKI-1, 0.136 µM (active); in the test with HCT-116, 0.251 µM (active). Also, the GI50 is 0.183 µM (active) in the test on K562 and 0.614 µM (active) with NCI-H226.
